Key:
Test in all cases: Histone peptide microarray
Assay type in all cases: binding, human
Settings in all cases: histone peptide array
KDM4C (TTP) = system: KDM4C (TTP)
Procedure, shortened: (§1)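 Mean ± SD of 4 replicate array intensities; GST-PHD finger at 0.5 μM against 293 PTM-bearing histone peptides.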

ING2 = system: ING2
Procedure, shortened: as §1

ING4 = system: ING4
Procedure, shortened: as §1

KDM5B (1) = system: KDM5B (1)
Procedure, shortened: as §1

TRIM66 (PB) = system: TRIM66 (PB)
Procedure, shortened: as §1

RAG2 = system: RAG2
Procedure, shortened: as §1

ING5 = system: ING5
Procedure, shortened: as §1

DIDO1 = system: DIDO1
Procedure, shortened: as §1

SP140L = system: SP140L
Procedure, shortened: as §1

PHF8 = system: PHF8
Procedure, shortened: as §1

AIRE (PP) = system: AIRE (PP)
Procedure, shortened: as §1

BAZ2B = system: BAZ2B
Procedure, shortened: as §1

ING3 = system: ING3
Procedure, shortened: as §1

CHD4 (PPCC) = system: CHD4 (PPCC)
Procedure, shortened: as §1

KDM5A (1) = system: KDM5A (1)
Procedure, shortened: as §1

MLL5 = system: MLL5
Procedure, shortened: as §1

ING1 = system: ING1
Procedure, shortened: as §1

PHF23 = system: PHF23
Procedure, shortened: as §1

PHRF1 (RP) = system: PHRF1 (RP)
Procedure, shortened: as §1

DPF2 (PPC2W2) = system: DPF2 (PPC2W2)
Procedure, shortened: as §1

PHF2 = system: PHF2
Procedure, shortened: as §1

MORC3 (CW) = system: MORC3 (CW)
Procedure, shortened: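 GST-tagged PHD readers, 0.5 μM, probed on a microarray of 293 synthetic histone peptides carrying single or combinatorial PTMs (optimized Petell protocol). Signals are averaged over 4 replicates and expressed as relative binding.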

KDM5A (3) = system: KDM5A (3)
Procedure, shortened: as §1

KDM7A = system: KDM7A
Procedure, shortened: as §1

BPTF (PB) = system: BPTF (PB)
Procedure, shortened: as §1

CHD5 (PCC) = system: CHD5 (PCC)
Procedure, shortened: as §1

TAF3 = system: TAF3
Procedure, shortened: as §1

KDM5B (3) = system: KDM5B (3)
Procedure, shortened: as §1

PHF21A = system: PHF21A
Procedure, shortened: as §1

CHD5 (PPCC) = system: CHD5 (PPCC)
Procedure, shortened: as §1

PHF13 = system: PHF13
Procedure, shortened: as §1

[1] = sheet "Array Heatmap", GST-tagged reader, total n = 4

With H3R2me2s + K4me2: H3 1-20 the “Array Heatmap signal, KDM4C (TTP)” value (KDM4C (TTP); GST-tagged KDM4C (TTP = Tandem Tudor domain + PHD), arrays performed twice, n of 4) was 0.5629, the “Array Heatmap signal, ING2” value (ING2; GST-tagged ING2, arrays performed twice, n of 4) was 0.6563 and the “Array Heatmap signal, ING4” value (ING4; GST-tagged ING4, arrays performed twice, n of 4) was 0.4666. For the same substance, the “Array Heatmap signal, KDM5B (1)” value (KDM5B (1); GST-tagged KDM5B (1), arrays performed twice, n of 4) was 0.7544, the “Array Heatmap signal, TRIM66 (PB)” value (TRIM66 (PB); GST-tagged TRIM66 (PB = PHD + Bromodomain), arrays performed twice, n of 4) was 0.6465 and the “Array Heatmap signal, RAG2” value (RAG2; GST-tagged RAG2, arrays performed twice, n of 4) was 0.4992. For the same substance, the “Array Heatmap signal, ING5” value (ING5; GST-tagged ING5, arrays performed twice, n of 4) was 0.3606, the “Array Heatmap signal, DIDO1” value (DIDO1; GST-tagged DIDO1, arrays performed twice, n of 4) was 0.7352 and the “Array Heatmap signal, SP140L” value (SP140L; GST-tagged SP140L, arrays performed twice, n of 4) was 0.3393. For the same substance, the “Array Heatmap signal, PHF8” value (PHF8; GST-tagged PHF8, arrays performed twice, n of 4) was 0.5813, the “Array Heatmap signal, AIRE (PP)” value (AIRE (PP); GST-tagged AIRE (PP), arrays performed twice, n of 4) was 0.4691 and the “Array Heatmap signal, BAZ2B” value (BAZ2B; GST-tagged BAZ2B, arrays performed twice, n of 4) was 0.454. For the same substance, the “Array Heatmap signal, ING3” value (ING3; GST-tagged ING3, arrays performed twice, n of 4) was 0.5515, the “Array Heatmap signal, CHD4 (PPCC)” value (CHD4 (PPCC); GST-tagged CHD4 (PPCC = Dual PHD + Dual Chromodomain), arrays performed twice, n of 4) was 0.5835 and the “Array Heatmap signal, KDM5A (1)” value (KDM5A (1); GST-tagged KDM5A (1), arrays performed twice, n of 4) was 0.4761. The “Array Heatmap signal, MLL5” value (MLL5; GST-tagged MLL5, arrays performed twice, n of 4) was 0.5794, the “Array Heatmap signal, ING1” value (ING1; GST-tagged ING1, arrays performed twice, n of 4) was 0.5374 and the “Array Heatmap signal, PHF23” value (PHF23; GST-tagged PHF23, arrays performed twice, n of 4) was 0.6298. For the same substance, the “Array Heatmap signal, PHRF1 (RP)” value (PHRF1 (RP); GST-tagged PHRF1 (RP), arrays performed twice, n of 4) was 0.4714, the “Array Heatmap signal, DPF2 (PPC2W2)” value (DPF2 (PPC2W2); GST-tagged DPF2 (PPC2W2 = Dual PHD + C2W2-type Zn-finger), arrays performed twice, n of 4) was 0.6255 and the “Array Heatmap signal, PHF2” value (PHF2; GST-tagged PHF2, arrays performed twice, n of 4) was 0.597. For the same substance, the “Array Heatmap signal, MORC3 (CW)” value (MORC3 (CW); GST-tagged MORC3 (CW = CW-type Zn-finger), arrays performed twice, n of 4) was 0.7987, the “Array Heatmap signal, KDM5A (3)” value (KDM5A (3); GST-tagged KDM5A (3), arrays performed twice, n of 4) was 0.7167 and the “Array Heatmap signal, KDM7A” value (KDM7A; GST-tagged KDM7A, arrays performed twice, n of 4) was 0.4256. The “Array Heatmap signal, BPTF (PB)” value (BPTF (PB); GST-tagged BPTF (PB = PHD + Bromodomain), arrays performed twice, n of 4) was 0.3673, the “Array Heatmap signal, CHD5 (PCC)” value (CHD5 (PCC); GST-tagged CHD5 (PCC = PHD + Dual Chromodomain), arrays performed twice, n of 4) was 0.8074 and the “Array Heatmap signal, TAF3” value (TAF3; GST-tagged TAF3, arrays performed twice, n of 4) was 0.4. For the same substance, the “Array Heatmap signal, KDM5B (3)” value (KDM5B (3); GST-tagged KDM5B (3), arrays performed twice, n of 4) was 0.725, the “Array Heatmap signal, PHF21A” value (PHF21A; GST-tagged PHF21A, arrays performed twice, n of 4) was 0.4639 and the “Array Heatmap signal, CHD5 (PPCC)” value (CHD5 (PPCC); GST-tagged CHD5 (PPCC = Dual PHD + Dual Chromodomain), arrays performed twice, n of 4) was 0.5636. For the same substance, the “Array Heatmap signal, PHF13” value (PHF13; GST-tagged PHF13, arrays performed twice, n of 4) was 0.6897.
With “H3R2me2s + K4me3 + K9ac + K14ac + K18ac: H3 1-20” the “Array Heatmap signal, KDM4C (TTP)” value (KDM4C (TTP); [1]) was 0.3487, the “Array Heatmap signal, ING2” value (ING2; [1]) was 0.6168 and the “Array Heatmap signal, ING4” value (ING4; [1]) was 0.356. The “Array Heatmap signal, KDM5B (1)” value (KDM5B (1); [1]) was 0.5889, the “Array Heatmap signal, TRIM66 (PB)” value (TRIM66 (PB); [1]) was 0.4734 and the “Array Heatmap signal, RAG2” value (RAG2; [1]) was 0.309. The “Array Heatmap signal, ING5” value (ING5; [1]) was 0.2654, the “Array Heatmap signal, DIDO1” value (DIDO1; [1]) was 0.6935 and the “Array Heatmap signal, SP140L” value (SP140L; [1]) was 0.3075. For the same substance, the “Array Heatmap signal, PHF8” value (PHF8; [1]) was 0.402, the “Array Heatmap signal, AIRE (PP)” value (AIRE (PP); [1]) was 0.3152 and the “Array Heatmap signal, BAZ2B” value (BAZ2B; [1]) was 0.3825. For the same substance, the “Array Heatmap signal, ING3” value (ING3; [1]) was 0.3864, the “Array Heatmap signal, CHD4 (PPCC)” value (CHD4 (PPCC); [1]) was 0.4966 and the “Array Heatmap signal, KDM5A (1)” value (KDM5A (1); [1]) was 0.3527. For the same substance, the “Array Heatmap signal, MLL5” value (MLL5; [1]) was 0.5797, the “Array Heatmap signal, ING1” value (ING1; [1]) was 0.5042 and the “Array Heatmap signal, PHF23” value (PHF23; [1]) was 0.5367. The “Array Heatmap signal, PHRF1 (RP)” value (PHRF1 (RP); [1]) was 0.3639, the “Array Heatmap signal, DPF2 (PPC2W2)” value (DPF2 (PPC2W2); [1]) was 0.5621 and the “Array Heatmap signal, PHF2” value (PHF2; [1]) was 0.5721. For the same substance, the “Array Heatmap signal, MORC3 (CW)” value (MORC3 (CW); [1]) was 0.4658, the “Array Heatmap signal, KDM5A (3)” value (KDM5A (3); [1]) was 0.5269 and the “Array Heatmap signal, KDM7A” value (KDM7A; [1]) was 0.2957. For the same substance, the “Array Heatmap signal, BPTF (PB)” value (BPTF (PB); [1]) was 0.2994, the “Array Heatmap signal, CHD5 (PCC)” value (CHD5 (PCC); [1]) was 0.6375 and the “Array Heatmap signal, TAF3” value (TAF3; [1]) was 0.2641. For the same substance, the “Array Heatmap signal, KDM5B (3)” value (KDM5B (3); [1]) was 0.4309, the “Array Heatmap signal, PHF21A” value (PHF21A; [1]) was 0.377 and the “Array Heatmap signal, CHD5 (PPCC)” value (CHD5 (PPCC); [1]) was 0.4157. For the same substance, the “Array Heatmap signal, PHF13” value (PHF13; [1]) was 0.4921.
With H3R8me1 + K9me2: H3 1-20 the “Array Heatmap signal, KDM4C (TTP)” value (KDM4C (TTP); [1]) was 0.5659, the “Array Heatmap signal, ING2” value (ING2; [1]) was 0.6201 and the “Array Heatmap signal, ING4” value (ING4; [1]) was 0.5352. For the same substance, the “Array Heatmap signal, KDM5B (1)” value (KDM5B (1); [1]) was 0.696, the “Array Heatmap signal, TRIM66 (PB)” value (TRIM66 (PB); [1]) was 0.6813 and the “Array Heatmap signal, RAG2” value (RAG2; [1]) was 0.302. For the same substance, the “Array Heatmap signal, ING5” value (ING5; [1]) was 0.4288, the “Array Heatmap signal, DIDO1” value (DIDO1; [1]) was 0.8013 and the “Array Heatmap signal, SP140L” value (SP140L; [1]) was 0.3989. The “Array Heatmap signal, PHF8” value (PHF8; [1]) was 0.3836, the “Array Heatmap signal, AIRE (PP)” value (AIRE (PP); [1]) was 0.4949 and the “Array Heatmap signal, BAZ2B” value (BAZ2B; [1]) was 0.525. The “Array Heatmap signal, ING3” value (ING3; [1]) was 0.5783, the “Array Heatmap signal, CHD4 (PPCC)” value (CHD4 (PPCC); [1]) was 0.7009 and the “Array Heatmap signal, KDM5A (1)” value (KDM5A (1); [1]) was 0.5283. For the same substance, the “Array Heatmap signal, MLL5” value (MLL5; [1]) was 0.5733, the “Array Heatmap signal, ING1” value (ING1; [1]) was 0.6213 and the “Array Heatmap signal, PHF23” value (PHF23; [1]) was 0.6046. The “Array Heatmap signal, PHRF1 (RP)” value (PHRF1 (RP); [1]) was 0.6787, the “Array Heatmap signal, DPF2 (PPC2W2)” value (DPF2 (PPC2W2); [1]) was 0.8023 and the “Array Heatmap signal, PHF2” value (PHF2; [1]) was 0.6657. The “Array Heatmap signal, MORC3 (CW)” value (MORC3 (CW); [1]) was 0.4736, the “Array Heatmap signal, KDM5A (3)” value (KDM5A (3); [1]) was 0.6031 and the “Array Heatmap signal, KDM7A” value (KDM7A; [1]) was 0.3959. For the same substance, the “Array Heatmap signal, BPTF (PB)” value (BPTF (PB); [1]) was 0.4109, the “Array Heatmap signal, CHD5 (PCC)” value (CHD5 (PCC); [1]) was 0.7992 and the “Array Heatmap signal, TAF3” value (TAF3; [1]) was 0.3249. The “Array Heatmap signal, KDM5B (3)” value (KDM5B (3); [1]) was 0.5247, the “Array Heatmap signal, PHF21A” value (PHF21A; [1]) was 0.4957 and the “Array Heatmap signal, CHD5 (PPCC)” value (CHD5 (PPCC); [1]) was 0.658. For the same substance, the “Array Heatmap signal, PHF13” value (PHF13; [1]) was 0.7136.

Reference: paper PMC6979384, “Characterization of the plant homeodomain (PHD) reader family for their histone tail interactions” (Epigenetics & Chromatin, 2020)
